Experiment [1] addresses T1, FbPrnB (Flavobacteriales bacterium, UniProt A0AC62AEF3).
T1 construct: N-terminal His-tag
T1 sequence (A0AC62AEF3 1-350): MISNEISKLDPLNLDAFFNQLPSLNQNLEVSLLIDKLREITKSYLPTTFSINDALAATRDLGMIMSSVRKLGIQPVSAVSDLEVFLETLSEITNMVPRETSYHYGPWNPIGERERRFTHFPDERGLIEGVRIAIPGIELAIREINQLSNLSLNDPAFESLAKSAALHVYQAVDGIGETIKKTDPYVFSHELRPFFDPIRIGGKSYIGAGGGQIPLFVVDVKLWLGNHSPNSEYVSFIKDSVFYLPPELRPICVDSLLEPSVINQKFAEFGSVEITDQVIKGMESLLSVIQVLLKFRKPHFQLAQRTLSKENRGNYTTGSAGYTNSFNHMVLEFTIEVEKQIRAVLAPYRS
Kind of experiment: X-ray crystal structure of the binary complex. It counts as binding.

Experiment [2] deals with T2, PsPrnB.
T2 construct: gene prnB; N-terminal His6-tag (TEV-cleavable)
The experiment is described as follows: UV-visible absorption titration of the ferric enzyme; resonance Raman. Type of experiment: binding, Pseudomonas sp. ADAK18.

Experiment [3] deals with T1, FbPrnB. The experiment is described as follows: X-ray crystal structure of the binary complex ([…] and […] occupancy). Type of experiment: binding.
The target of experiment [4] is T2, PsPrnB. The experiment is described as follows: UV-visible absorption titration of the ferric enzyme; EPR; resonance Raman. It counts as binding, Pseudomonas sp. ADAK18.
Experiment [5] deals with T1, FbPrnB. Kind of experiment: X-ray crystal structure of the binary complex; UV-visible; resonance Raman. It counts as binding.

One may read the Kd as the free concentration of one partner at which half of the binding sites on the other are occupied at equilibrium, for simple one-to-one binding. As for `N[C@@H](Cc1c[nH]c2c(Cl)cccc12)C(=O)O` [7-Cl-Trp, 7-chloro-L-tryptophan], the “X-ray crystal structure of the binary complex” value on FbPrnB [1] is “binding conformations of 7-Cl-Trp and Trp are nearly identical (Fig. S7A), with the amino group directly coordinating to the iron center”. This compound yielded a dissociation constant (Kd) on PsPrnB [2] of 1.9 µM.

As to `NCCc1c[nH]c2ccccc12` [TAM, tryptamine], the “X-ray crystal structure of the binary complex (75% and 90% occupancy)” value at FbPrnB [3] was “The amine tail is flexible and adopts two distinct conformations in Chain A (Fig. 5D), with one remaining in coordination”. This compound showed an equilibrium dissociation constant (Kd) at PsPrnB [4] of 411 µM.

Take `O=C(O)CCc1c[nH]c2ccccc12` [IDPA, 3-indolepropionic acid]: on FbPrnB [1], the “X-ray crystal structure of the binary complex” value is listed as “The structure of the IDPA-bound complex aligns well with our spectroscopic data, confirming that IDPA does not directly interact with the iron”. Besides, on PsPrnB [4], the affinity, expressed as Kd, was 9.1 µM.

`N[C@@H](Cc1c[nH]c2ccccc12)C(=O)O` [Trp, L-tryptophan]: the affinity on PsPrnB [4], expressed as Kd, was 4.1 µM. The “X-ray crystal structure of the binary complex; UV-visible; resonance Raman” value on FbPrnB [5] is “binding conformations of 7-Cl-Trp and Trp are nearly identical (Fig. S7A), with the amino group directly coordinating to the iron center”.

(Values after publication PMC11791213, “Elucidating ligand interactions and small-molecule activation in the pyrrolnitrin biosynthetic enzyme PrnB” (The Journal of Biological Chemistry, 2024).)
